The source of these data is US20240383954A1, “PEPTIDE INHIBITORS OF INTERLEUKIN-23 RECEPTOR AND THEIR USE TO TREAT INFLAMMATORY DISEASES” (Janssen Biotech, Inc., priority 2020, published 2024).

Positions of bridges follow the written chain, without caps; N, C: chain ends. Non-standard residues stand in square brackets, D forms with d. Residues, ends and D or L forms follow the SMILES beside them. Trp(7-Me) = Cc1cccc2c(C[C@H](N)C(=O)O)c[nH]c12; 2Nal = N[C@@H](Cc1ccc2ccccc2c1)C(=O)O; AEF = NCCOc1ccc(C[C@H](N)C(=O)O)cc1; αMeF = C[C@](N)(Cc1ccccc1)C(=O)O; Cit = NC(=O)NCCC[C@H](N)C(=O)O; αMeL = CC(C)C[C@](C)(N)C(=O)O; Pen = CC(C)(S)[C@H](N)C(=O)O; Ac5c = NC1(C(=O)O)CCCC1; Thp = NC1(C(=O)O)CCOCC1
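Note: cryopreserved PBMCs stimulated at 37 °C in 5% CO2, then lysed, with phosphorylated STAT3 quantified in lysates using a phospho-STAT panel kit.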

Sequence of IL-23R (Q5VWK5 24-629): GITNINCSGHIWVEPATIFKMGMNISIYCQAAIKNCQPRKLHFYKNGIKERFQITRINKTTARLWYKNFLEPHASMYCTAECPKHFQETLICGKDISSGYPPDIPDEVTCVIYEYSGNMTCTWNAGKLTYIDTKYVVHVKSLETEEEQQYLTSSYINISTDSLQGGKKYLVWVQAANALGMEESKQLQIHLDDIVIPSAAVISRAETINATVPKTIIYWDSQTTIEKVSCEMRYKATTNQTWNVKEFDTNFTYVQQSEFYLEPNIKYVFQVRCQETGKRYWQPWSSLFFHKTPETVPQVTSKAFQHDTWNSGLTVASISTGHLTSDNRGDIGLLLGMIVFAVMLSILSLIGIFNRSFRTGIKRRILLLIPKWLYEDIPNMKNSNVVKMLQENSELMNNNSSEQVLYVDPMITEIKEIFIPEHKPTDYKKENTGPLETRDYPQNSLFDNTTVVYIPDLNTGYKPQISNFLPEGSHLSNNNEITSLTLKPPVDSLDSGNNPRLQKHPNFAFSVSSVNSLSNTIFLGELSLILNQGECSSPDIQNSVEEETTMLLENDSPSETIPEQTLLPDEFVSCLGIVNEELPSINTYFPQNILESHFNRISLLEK

This assay concerns the target IL-23R (Homo sapiens, UniProt Q5VWK5). The assay can be described thus: cell-based. Conditions: PBMC pSTAT3 IC50 (nM), PBMCs from healthy donors, IL-23 5 ng/mL, 30 minutes, phosphorylated STAT3.
Experimental: Cryopreserved peripheral blood mononuclear cells (PBMCs) from healthy donors were thawed and washed twice in ImmunoCult-XF T cell expansion medium (XF-TCEM) supplemented with CTL anti-aggregate wash. […] The cells were stimulated with cytokine for 30 minutes at 37° C. in 5% CO2, transferred onto ice for 10 minutes, and lysed. Cell lysates were stored at −80° C. until phosphorylated STAT3 was measured using the phospho-STAT panel kit (Meso Scale Discovery, K15202D).
The IC50 is the midpoint of a concentration-inhibition curve. Read a low IC50 as greater potency. Consider `CC(=O)NCCCC[C@@H]1NC(=O)[C@H](Cc2c[nH]c3c(C)cccc23)NC(=O)[C@H]([C@@H](C)O)NC(=O)[C@H](CC(N)=O)NC(=O)[C@@H](NC(=O)[C@@H](CCCNC(=N)N)NC(C)=O)C(C)(C)SSC(C)(C)[C@@H](C(=O)N[C@@H](Cc2ccc(OCCN)cc2)C(=O)N[C@@H](Cc2ccc3ccccc3c2)C(=O)NC2(C(=O)N[C@@H](CCC(=O)O)C(=O)N[C@@H](CC(N)=O)C(=O)N[C@@](C)(Cc3ccccc3)C(N)=O)CCCC2)NC1=O` [Compound 94, Ac-[(D)Arg]-[Pen]-N-T-[W(7-Me)]-[Lys(Ac)]-[Pen]-Phe[4-(2-aminoethoxy)]-[2-Nal]-[Acvc]-E-N-[a-MePhe]-NH2] (Ac-[dR][Pen]NT[Trp(7-Me)]K(Ac)[Pen][AEF][2Nal][Ac5c]EN[αMeF]-NH2; disulfide 2-7), for which the IC50 is 12 nM.

For the compound `CC(=O)NCCCC[C@@H]1NC(=O)[C@H](Cc2c[nH]c3ccccc23)NC(=O)[C@H]([C@@H](C)O)NC(=O)[C@H](CC(N)=O)NC(=O)[C@@H](NC(C)=O)C(C)(C)SSC(C)(C)[C@@H](C(=O)N[C@@H](Cc2ccc(OCCN)cc2)C(=O)N[C@@H](Cc2ccc3ccccc3c2)C(=O)N[C@@](C)(CCCCN)C(=O)N[C@@H](CCCCNC(C)=O)C(=O)N[C@@H](CC(N)=O)C(=O)NC2(C(N)=O)CCOCC2)NC1=O` [Compound 95, Ac-[Pen]-N-T-W-[Lys(Ac)]-[Pen]-Phe[4-(2-aminoethoxy)]-[2-Nal]-[a-MeLys]-[Lys(Ac)]-N-[THP]-NH2], half-maximal inhibition (IC50) required 22 nM.

Consider `CC(=O)N[C@H](CCCNC(=N)N)C(=O)N[C@@H]1C(=O)N[C@@H](CCC(N)=O)C(=O)N[C@@H]([C@@H](C)O)C(=O)N[C@@H](Cc2c[nH]c3ccccc23)C(=O)N[C@@H](CCC(N)=O)C(=O)N[C@H](C(=O)N[C@@H](Cc2ccc(OCCN)cc2)C(=O)N[C@@H](Cc2ccc3ccccc3c2)C(=O)NC2(C(=O)N[C@@H](CCC(=O)O)C(=O)N[C@@H](CC(N)=O)C(=O)N[C@@](C)(Cc3ccccc3)C(N)=O)CCOCC2)C(C)(C)SSC1(C)C` [Compound 97, Ac-[(D)Arg]-[Pen]-Q-T-W-Q-[Pen]-Phe[4-(2-aminoethoxy)]-[2-Nal]-[THP]-E-N-[a-MePhe]-NH2] (Ac-[dR][Pen]QTWQ[Pen][AEF][2Nal][Thp]EN[αMeF]-NH2; disulfide 2-7), for which the IC50 is 31 nM.

In turn, `CC(=O)NCCCC[C@@H]1NC(=O)[C@H](Cc2c[nH]c3ccccc23)NC(=O)[C@H]([C@@H](C)O)NC(=O)[C@H](CC(N)=O)NC(=O)[C@@H](NC(C)=O)C(C)(C)SSC(C)(C)[C@@H](C(=O)N[C@@H](Cc2ccc(OCCN)cc2)C(=O)N[C@@H](Cc2ccc3ccccc3c2)C(=O)N[C@@](C)(CCCCN)C(=O)N[C@@H](CCCCNC(C)=O)C(=O)N[C@@H](CC(N)=O)C(=O)N[C@@](C)(Cc2ccccc2)C(N)=O)NC1=O` [Compound 98, Ac-[Pen]-N-T-W-[Lys(Ac)]-[Pen]-Phe[4-(2-aminoethoxy)]-[2-Nal]-[a-MeLys]-[Lys(Ac)]-N-[a-MePhe]-NH2] had an IC50 of 15 nM.

On to `CC(=O)N[C@H](CCCNC(=N)N)C(=O)N[C@@H]1C(=O)N[C@@H](CC(N)=O)C(=O)N[C@@H]([C@@H](C)O)C(=O)N[C@@H](Cc2c[nH]c3c(C)cccc23)C(=O)N[C@@H](CCC(N)=O)C(=O)N[C@H](C(=O)N[C@@H](Cc2ccc(OCCN)cc2)C(=O)N[C@@H](Cc2ccc3ccccc3c2)C(=O)NC2(C(=O)N[C@@H](CCC(=O)O)C(=O)N[C@@H](CC(N)=O)C(=O)NC3(C(N)=O)CCOCC3)CCCC2)C(C)(C)SSC1(C)C` [Compound 99, Ac-[(D)Arg]-[Pen]-N-T-[W(7-Me)]-Q-[Pen]-Phe[4-(2-aminoethoxy)]-[2-Nal]-[Acvc]-E-N-[THP]-NH2] (Ac-[dR][Pen]NT[Trp(7-Me)]Q[Pen][AEF][2Nal][Ac5c]EN[Thp]-NH2; disulfide 2-7), for which the IC50 was 4.2 nM.

For the compound `CC(=O)NCCCC[C@@H]1NC(=O)[C@H](Cc2c[nH]c3c(C)cccc23)NC(=O)[C@H]([C@@H](C)O)NC(=O)[C@H](CC(N)=O)NC(=O)[C@@H](NC(C)=O)C(C)(C)SSC(C)(C)[C@@H](C(=O)N[C@@H](Cc2ccc(OCCN)cc2)C(=O)N[C@@H](Cc2ccc3ccccc3c2)C(=O)N[C@@](C)(CCCCN)C(=O)N[C@@H](CCCCNC(C)=O)C(=O)N[C@@H](CC(N)=O)C(=O)N[C@@](C)(Cc2ccccc2)C(=O)N[C@H](Cc2ccc(O)cc2)C(N)=O)NC1=O` [Compound 100, Ac-[Pen]-N-T-[W(7-Me)]-[Lys(Ac)]-[Pen]-Phe[4-(2-aminoethoxy)]-[2-Nal]-[a-MeLys]-[Lys(Ac)]-N-[a-MePhe]-[(D)Tyr]-NH2], inhibition was half-maximal at 21 nM (IC50).

As for `CC(=O)NCCCC[C@@H]1NC(=O)[C@H](Cc2c[nH]c3c(C)cccc23)NC(=O)[C@H]([C@@H](C)O)NC(=O)[C@H](CC(N)=O)NC(=O)[C@@H](NC(=O)[C@@H](CCCNC(=N)N)NC(C)=O)C(C)(C)SSC(C)(C)[C@@H](C(=O)N[C@@H](Cc2ccc(OCCN)cc2)C(=O)N[C@@H](Cc2ccc3ccccc3c2)C(=O)NC2(C(=O)N[C@@H](CCC(=O)O)C(=O)N[C@@H](CC(N)=O)C(=O)NC3(C(N)=O)CCOCC3)CCCC2)NC1=O` [Compound 101, Ac-[(D)Arg]-[Pen]-N-T-[W(7-Me)]-[Lys(Ac)]-[Pen]-Phe[4-(2-aminoethoxy)]-[2-Nal]-[Acvc]-E-N-[THP]-NH2] (Ac-[dR][Pen]NT[Trp(7-Me)]K(Ac)[Pen][AEF][2Nal][Ac5c]EN[Thp]-NH2; disulfide 2-7), the IC50 was 0.74 nM.

Consider `CC(=O)NCCCC[C@@H]1NC(=O)[C@H](Cc2c[nH]c3ccccc23)NC(=O)[C@H]([C@@H](C)O)NC(=O)[C@H](CC(N)=O)NC(=O)[C@@H](NC(=O)[C@@H](CCCNC(=N)N)NC(C)=O)C(C)(C)SSC(C)(C)[C@@H](C(=O)N[C@@H](Cc2ccc(OCCN)cc2)C(=O)N[C@@H](Cc2ccc3ccccc3c2)C(=O)NC2(C(=O)N[C@@H](CCC(=O)O)C(=O)N[C@@H](CC(N)=O)C(=O)N[C@@](C)(Cc3ccccc3)C(N)=O)CCCC2)NC1=O` [Compound 102, Ac-[(D)Arg]-[Pen]-N-T-W-[Lys(Ac)]-[Pen]-Phe[4-(2-aminoethoxy)]-[2-Nal]-[Acvc]-E-N-[a-MePhe]-NH2] (Ac-[dR][Pen]NTWK(Ac)[Pen][AEF][2Nal][Ac5c]EN[αMeF]-NH2; disulfide 2-7), for which the 50% inhibitory concentration (IC50) was 8.4 nM.

Regarding `CC(=O)NCCCC[C@H](NC(=O)[C@](C)(CCCCN)NC(=O)[C@H](Cc1ccc2ccccc2c1)NC(=O)[C@H](Cc1ccc(OCCN)cc1)NC(=O)[C@H]1NC(=O)[C@H](CCCCNC(=O)C(F)(F)F)NC(=O)[C@H](Cc2c[nH]c3ccccc23)NC(=O)[C@H]([C@@H](C)O)NC(=O)[C@H](CC(N)=O)NC(=O)[C@@H](NC(C)=O)C(C)(C)SSC1(C)C)C(=O)N[C@@H](CC(N)=O)C(=O)NC1(C(N)=O)CCOCC1` [Compound 103, Ac-[Pen]-N-T-W-[Lys(COCF3)]-[Pen]-Phe[4-(2-aminoethoxy)]-[2-Nal]-[a-MeLys]-[Lys(Ac)]-N-[THP]-NH2], the IC50 turned out to be 57 nM.

Consider `CC(=O)NCCCC[C@H](NC(=O)[C@](C)(CC(C)C)NC(=O)[C@H](Cc1ccc2ccccc2c1)NC(=O)[C@H](Cc1ccc(OCCN)cc1)NC(=O)[C@H]1NC(=O)[C@H](CCCNC(N)=O)NC(=O)[C@H](Cc2c[nH]c3c(C)cccc23)NC(=O)[C@H]([C@@H](C)O)NC(=O)[C@H](CC(N)=O)NC(=O)[C@@H](NC(C)=O)C(C)(C)SSC1(C)C)C(=O)N[C@@H](CC(N)=O)C(=O)N[C@@](C)(Cc1ccccc1)C(N)=O` [Compound 104, Ac-[Pen]-N-T-[W(7-Me)]-[Cit]-[Pen]-Phe[4-(2-aminoethoxy)]-[2-Nal]-[aMeLeu]-[Lys(Ac)]-N-[a-MePhe]-NH2] (Ac-[Pen]NT[Trp(7-Me)][Cit][Pen][AEF][2Nal][αMeL]K(Ac)N[αMeF]-NH2; disulfide 1-6), for which it took 8.2 nM to reach half-maximal inhibition (IC50).

With `CC(=O)NCCCC[C@@H]1NC(=O)[C@H](Cc2c[nH]c3ccccc23)NC(=O)[C@H]([C@@H](C)O)NC(=O)[C@H](CC(N)=O)NC(=O)[C@@H](NC(=O)[C@@H](CCCNC(=N)N)NC(C)=O)C(C)(C)SSC(C)(C)[C@@H](C(=O)N[C@@H](Cc2ccc(OCCN)cc2)C(=O)N[C@@H](Cc2ccc3ccccc3c2)C(=O)NC2(C(=O)N[C@@H](CCC(=O)O)C(=O)N[C@@H](CC(N)=O)C(=O)NC3(C(N)=O)CCOCC3)CCOCC2)NC1=O` [Compound 105, Ac-[(D)Arg]-[Pen]-N-T-W-[Lys(Ac)]-[Pen]-Phe[4-(2-aminoethoxy)]-[2-Nal]-[THP]-E-N-[THP]-NH2] (Ac-[dR][Pen]NTWK(Ac)[Pen][AEF][2Nal][Thp]EN[Thp]-NH2; disulfide 2-7), the half-inhibitory concentration (IC50) is 2.2 nM.

For the compound `CC(=O)NCCCC[C@@H]1NC(=O)[C@H](Cc2c[nH]c3ccccc23)NC(=O)[C@H]([C@@H](C)O)NC(=O)[C@H](CC(N)=O)NC(=O)[C@@H](NC(=O)[C@@H](CCCNC(=N)N)NC(C)=O)C(C)(C)SSC(C)(C)[C@@H](C(=O)N[C@@H](Cc2ccc(OCCN)cc2)C(=O)N[C@@H](Cc2ccc3ccccc3c2)C(=O)NC2(C(=O)N[C@@H](CCC(=O)O)C(=O)N[C@@H](CC(N)=O)C(=O)N[C@@](C)(Cc3ccccc3)C(N)=O)CCOCC2)NC1=O` [Compound 106, Ac-[(D)Arg]-[Pen]-N-T-W-[Lys(Ac)]-[Pen]-Phe[4-(2-aminoethoxy)]-[2-Nal]-[THP]-E-N-[a-MePhe]-NH2] (Ac-[dR][Pen]NTWK(Ac)[Pen][AEF][2Nal][Thp]EN[αMeF]-NH2; disulfide 2-7), 13 nM corresponded to half-maximal inhibition (IC50).

Regarding `CC(=O)NCCCC[C@@H]1NC(=O)[C@H](Cc2c[nH]c3c(C)cccc23)NC(=O)[C@H]([C@@H](C)O)NC(=O)[C@H](CC(N)=O)NC(=O)[C@@H](NC(C)=O)C(C)(C)SSC(C)(C)[C@@H](C(=O)N[C@@H](Cc2ccc(OCCN)cc2)C(=O)N[C@@H](Cc2ccc3ccccc3c2)C(=O)N[C@@](C)(CCCCN)C(=O)N[C@@H](CCCCNC(C)=O)C(=O)N[C@@H](CC(N)=O)C(=O)NC2(C(=O)N[C@H](Cc3ccc(O)cc3)C(N)=O)CCOCC2)NC1=O` [Compound 107, Ac-[Pen]-N-T-[W(7-Me)]-[Lys(Ac)]-[Pen]-Phe[4-(2-aminoethoxy)]-[2-Nal]-[a-MeLys]-[Lys(Ac)]-N-[THP]-[(D)Tyr]-NH2], the IC50 is 11 nM. This IC50 and that of the compound before are within 1.5-fold of each other.
